PubChem BioAssay AID2286 (Southern Research Specialized Biocontainment Screening …, 2010)
Activity calls are given as the source filed them.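 The calls were made as follows: active = minimum cell viability of 80% or lower across the dose range, counted as toxic; inactive = minimum cell viability above 80%.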

Assay: MAGI-CCR5 and HeLa-R5-16 cytotoxicity, dose response, cytotoxicity control for HIV-1 fusion inhibitor project, cell-based, MAGI and MAGI-HeLa co-culture (AID 2286);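 also: cells exposed to compound for at least 64 h before ATP readout; 100% = median of DMSO vehicle wells with no ATP signal meaning 0%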
Conditions: MAGI-CCR5 cells viability, CellTiter-Glo ATP luminescence; for minimum viability: measured here: MAGI minimum viability across doses
[1] = MAGI-HeLa co-culture viability, at 50 µM, stronger effect = lower value
[2] = at 3.13 µM, stronger effect = lower value
[3] = at 12.5 µM, stronger effect = lower value
[4] = at 1.56 µM, stronger effect = lower value

Row | SMILES | viability [1] [%] | viability (at 50 µM (top of the series)) | minimum viability (at 50 µM, stronger effect = lower value) [%] | further results
1 | COc1cc(Cl)cc(C(c2c(C(=O)O)[nH]c3ccccc23)c2c(C(=O)O)[nH]c3ccccc23)c1O | 100 |  |  | viability (at 25 µM (top of the series)): 80.5% (inactive); minimum viability (at 25 µM, stronger effect = lower value): 80.5%
2 | O=C(O)c1ccccc1NS(=O)(=O)c1ccc(NNC(=S)Nc2ccc(OC(F)F)cc2)c([N+](=O)[O-])c1 | 86.2 | 101% (inactive) |  | minimum viability [2]: 93%
3 | COc1ccc(NC(=O)c2c[nH]n3c(=O)cc(C4CCN(C(=O)OC(C)(C)C)CC4)nc23)cc1Cl | 94.3 | 88.3% (inactive) | 88.3 | 
4 | CCOc1cc(/C=C2/C(=N)N3C(=NC2=O)SN=C3S(=O)(=O)CC)ccc1OC(=O)c1ccco1 | 108 | 112% (inactive) |  | minimum viability (at 0.1 µM, stronger effect = lower value): 106%
5 | Cc1cc(N2C(=O)C(O)=C(C(=O)c3ccc(C)o3)C2c2cccc(Oc3ccccc3)c2)no1 (stereo not given) | 89 | 82.1% (inactive) | 82.1 | 
6 | O=C(O)c1ccccc1N=Nc1c(O)[nH]c2ccc([N+](=O)[O-])cc12 | 87.3 | 90.2% (inactive) | 90.2 | 
7 | N=C1/C(=C\c2ccc(-c3cccc(C(=O)O)c3)o2)C(=O)N=C2SC=C(c3ccccc3)N12 | 103 | 81% (inactive) |  | minimum viability [3]: 80.3%
8 | COc1ccc(NS(=O)(=O)c2ccc3c(c2)[C@H]2C=CC[C@H]2[C@@H](c2ccc(C(=O)O)cc2)N3)cc1 | 130 | 99.7% (inactive) |  | minimum viability [2]: 95.3%
9 | COC(=O)c1sc(-c2ccc(C(C)(C)C)cc2)cc1NC(=O)c1ccccc1C(=O)O | 111 |  | 73.7 | 
10 | O=C(O)CSCC(=O)N(Cc1ccccc1)c1nc(-c2ccccc2)c(-c2ccccc2)s1 | 121 | 89% (inactive) | 89 | 
11 | COc1ccc(/C=N/NC(=O)c2[nH]c3ccc(Br)cc3c2-c2ccccc2)c(C(=O)O)c1OC | 95 | 90.4% (inactive) | 90.4 | 
12 | N#Cc1c(-c2ccccc2)nc(SCc2cccc(Cl)c2)[nH]c1=O | 101 | 95.8% (inactive) |  | minimum viability (at 25 µM, stronger effect = lower value): 88%
13 | Cc1c(CCC(=O)O)c(=O)oc2c(C)c3occ(-c4ccc(Br)cc4)c3cc12 | 97.7 |  |  | minimum viability [3]: 72.5%
14 | CCOC(=O)C1=C(C)N=c2s/c(=C\c3ccc(OCC(=O)O)c(OC)c3)c(=O)n2C1c1ccc(OC)cc1 (stereo not given) | 107 | 97.1% (inactive) |  | minimum viability [4]: 88%
15 | CS(=O)(=O)C1=NSC2=NC(=O)/C(=C\c3cccn3-c3ccc(Cl)cc3)C(=N)N21 | 93.6 | 88% (inactive) | 88 | 
16 | CC(C)(C)c1ccc2c(c1)OC(C(=O)N/N=C\c1ccc(-c3cccc(C(=O)O)c3)o1)CO2 (stereo not given) | 105 | 87.8% (inactive) |  | minimum viability [2]: 87.5%
17 | O=C1NN(c2ccccc2)C(=O)/C1=C\c1cccc(OC(=O)c2cccs2)c1 | 103 | 85.1% (inactive) | 85.1 | 
18 | CCCCCCc1c(C)c2ccc(OCC(=O)N[C@@H](Cc3ccccc3)C(=O)O)cc2oc1=O | 101 | 96.7% (inactive) |  | minimum viability [2]: 90.1%
19 | CCOC(=O)C1=C(C)N=c2s/c(=C\c3ccc(OCC(=O)O)cc3)c(=O)n2C1c1ccc(OC(C)C)cc1 (stereo not given) | 105 |  | 65.8 | 
20 | CCc1nnc(NS(=O)(=O)c2ccc(NC(=S)NC(=O)/C=C/c3cccs3)cc2)s1 | 105 | 93.8% (inactive) |  | minimum viability (at 25 µM, stronger effect = lower value): 83.5%
21 | O=C(CCN1C(=O)/C(=C/c2ccccc2Cl)SC1=S)Nc1ccccc1C(=O)O | 109 | 98.3% (inactive) |  | minimum viability (at 0.78 µM, stronger effect = lower value): 87.5%
22 | CC(C)S(=O)(=O)C1=NSC2=NC(=O)/C(=C\c3ccc(OC(=O)c4ccco4)cc3)C(=N)N21 | 100 | 103% (inactive) |  | minimum viability [4]: 84.2%
23 | COc1cc(/C=C2\SC(=O)N(CC(=O)Nc3cccc(C)c3)C2=O)cc([N+](=O)[O-])c1O | 111 |  | 74.5 | 
24 | COc1cc(/C=C2\SC(=Nc3ccccc3)N(CCc3c[nH]c4ccccc34)C2=O)ccc1OC(C)C(=O)O (stereo not given) | 103 |  |  | viability (at 25 µM (top of the series)): 101% (inactive); minimum viability (at 6.25 µM, stronger effect = lower value): 95.5%
25 | CCOC(=O)c1c(N2C(=O)Nc3cc(Cl)c(Cl)cc3N2O)sc2c1CCCCC2 | 98.1 |  | 70.1 | 
